Test results from patent US11958865B1, “Leucine-rich repeat kinase 2 (LRRK2) inhibitors” (H. Lundbeck A/S, priority 2022, dated 2024).
Read-outs that look alike come from different tables or passages of the source.

Legend:
[1] = target: LRRK2 G2019S (Homo sapiens (Human), UniProt Q5S007, G2019S); test: LRRK2 G2019S LanthaScreen TR-FRET kinase activity assay; format: biochemical; conditions: 250 pM kinase, 1.3 mM ATP, n≥2 tests
[2] = target: T1, LRRK2 WT (Homo sapiens (Human), UniProt Q5S007); test: LRRK2 wild-type LanthaScreen TR-FRET kinase activity assay; format: biochemical; conditions: 1 nM kinase, 1.3 mM ATP, n≥2 tests
T1 sequence (Q5S007 970-2527): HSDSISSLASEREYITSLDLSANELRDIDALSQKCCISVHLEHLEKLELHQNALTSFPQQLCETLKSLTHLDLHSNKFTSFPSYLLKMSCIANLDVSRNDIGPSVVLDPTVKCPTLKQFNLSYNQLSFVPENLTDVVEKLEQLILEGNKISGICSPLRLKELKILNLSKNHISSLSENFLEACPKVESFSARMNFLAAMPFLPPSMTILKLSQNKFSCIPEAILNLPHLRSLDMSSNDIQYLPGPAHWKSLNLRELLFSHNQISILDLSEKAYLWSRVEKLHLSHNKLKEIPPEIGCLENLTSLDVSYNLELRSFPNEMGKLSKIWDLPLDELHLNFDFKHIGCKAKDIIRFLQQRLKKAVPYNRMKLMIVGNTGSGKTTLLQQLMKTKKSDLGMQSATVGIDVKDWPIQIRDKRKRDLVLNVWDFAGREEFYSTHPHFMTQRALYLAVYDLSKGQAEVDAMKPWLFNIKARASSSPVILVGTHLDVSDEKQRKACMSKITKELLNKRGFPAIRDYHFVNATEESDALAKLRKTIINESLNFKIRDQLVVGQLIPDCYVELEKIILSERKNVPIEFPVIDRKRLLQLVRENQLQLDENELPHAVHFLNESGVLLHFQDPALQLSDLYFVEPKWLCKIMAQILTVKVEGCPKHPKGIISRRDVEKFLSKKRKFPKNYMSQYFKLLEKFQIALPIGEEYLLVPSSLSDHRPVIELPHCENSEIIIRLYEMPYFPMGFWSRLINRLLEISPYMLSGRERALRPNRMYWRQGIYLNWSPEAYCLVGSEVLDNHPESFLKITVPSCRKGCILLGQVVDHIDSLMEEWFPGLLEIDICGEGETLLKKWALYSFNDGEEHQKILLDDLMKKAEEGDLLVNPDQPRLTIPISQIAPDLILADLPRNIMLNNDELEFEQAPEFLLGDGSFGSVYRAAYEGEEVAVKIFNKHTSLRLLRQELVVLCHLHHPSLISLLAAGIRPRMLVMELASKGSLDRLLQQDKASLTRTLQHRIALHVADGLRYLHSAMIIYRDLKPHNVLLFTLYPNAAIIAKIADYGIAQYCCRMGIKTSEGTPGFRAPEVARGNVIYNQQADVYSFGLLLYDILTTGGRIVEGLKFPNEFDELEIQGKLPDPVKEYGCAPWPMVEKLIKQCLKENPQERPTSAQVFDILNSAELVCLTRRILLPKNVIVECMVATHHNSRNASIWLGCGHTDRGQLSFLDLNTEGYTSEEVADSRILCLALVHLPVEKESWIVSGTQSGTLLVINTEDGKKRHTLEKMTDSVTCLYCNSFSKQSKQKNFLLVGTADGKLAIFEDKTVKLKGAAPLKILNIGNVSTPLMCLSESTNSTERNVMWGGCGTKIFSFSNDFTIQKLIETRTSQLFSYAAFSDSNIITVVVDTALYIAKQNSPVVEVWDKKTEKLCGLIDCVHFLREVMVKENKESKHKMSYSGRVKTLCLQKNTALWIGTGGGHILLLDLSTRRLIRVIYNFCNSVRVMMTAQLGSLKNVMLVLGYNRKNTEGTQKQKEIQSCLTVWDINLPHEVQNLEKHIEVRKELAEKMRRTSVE

[3] = target: T1, LRRK2 WT; test: LRRK2 wild-type ADP-Glo kinase assay; format: biochemical; conditions: read-out: LRRK2 WT ADPGlo IC50
[4] = Rat brain disposition after oral gavage; format: in vivo, male Sprague-Dawley rats; conditions: male, Sprague-Dawley, 1 h, mean ± stdev; for Kp at 1 h / Kp uu at 1 h: n=3
Procedure, shortened: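 Male Sprague-Dawley rats (n=3) dosed orally at 10 or 5 mg/kg in 0.5% HPMC suspension; plasma and brain taken at 0.5 or 1 h. LC-MS/MS quantitation; Kp is total brain:plasma ratio, and Kp,uu was derived using rat fu in plasma and brain.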

[5] = Hepatocyte intrinsic clearance assay; format: in vitro ADME, Human; conditions: pooled donor, cryopreserved hepatocytes, pH 7.4; human hepatocytes 1×10^6/mL; 0.05 μM; 2 h at 37° C.
Procedure, shortened: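 Compound (0.05 μM final, 0.05% organic) was incubated with pooled-donor cryopreserved hepatocytes (1×10^6/mL) in supplemented Leibovitz L-15, pH 7.4, at 37° C with shaking for 2 h. Samples were taken from 1 to 120 min, quenched in acetonitrile and analyzed by LC-MS/MS.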

[6] = 0.5 nM kinase, 1.0 mM ATP, IC50=Ki,app+[E]/2, n≥2 tests
[7] = brain, oral 5 mg/kg, n=3, read-out: Total brain concentration
[8] = plasma, oral 5 mg/kg, n=3, read-out: Total plasma concentration

LRRK2 G2019S, sequence (Q5S007 970-2527 G2019S): as the sequence (Q5S007 970-2527) above, with G1050S counted along it

COc1ncccc1-n1nc2c(c1C)Nc1ncc3c(Cl)nn(c3n1)CCCO2 [Example 1, 8-Chloro-2-(2-methoxypyridin-3-yl)-3-methyl-2,4,12,13-tetrahydro-11H-5,7-(azenometheno)dipyrazolo[3,4-b:5′,1′-g][1]oxa[4,6,8]triazacycloundecine]
IC50 [1]: 0.45 nM | IC50 [2]: 1.1 nM | IC50 [3, 6]: 0.46 nM | Kp at 1 h ([4]; brain, oral 10 mg/kg): 2.6 ± 0.2 | Kp uu at 1 h ([4]; brain, oral 10 mg/kg): 0.83 ± 0.07 | concentration at 1 h ([4]; brain, oral 10 mg/kg, n=3, read-out: Total brain concentration): 620 ± 280 ng/g | concentration at 1 h ([4]; plasma, oral 10 mg/kg, n=3, read-out: Total plasma concentration): 245 ± 121 ng/mL | CLint scaled at 0.05 μM [5]: 10.7 mL/min/kg

COc1nccc(C)c1-n1nc2c(c1C)Nc1ncc3c(Cl)nn(c3n1)CCCO2 [Example 7, 8-Chloro-2-(2-methoxy-4-methylpyridin-3-yl)-3-methyl-2,4,12,13-tetrahydro-11H-5,7-(azenometheno)dipyrazolo[3,4-b:5′,1′-g][1]oxa[4,6,8]triazacycloundecine]
IC50 [1]: 2.3 nM | IC50 [2]: 6.9 nM | IC50 [3, 6]: 0.78 nM | Kp at 1 h ([4]; brain, oral 5 mg/kg): 1.9 ± 0.3 | Kp uu at 1 h ([4]; brain, oral 5 mg/kg): 0.68 ± 0.12 | concentration at 1 h [4, 7]: 10 ± 2 ng/g | concentration at 1 h [4, 8]: 6 ± 2 ng/mL | CLint scaled at 0.05 μM [5]: 7.83 mL/min/kg

COc1ncc(C)cc1-n1nc2c(c1C)Nc1ncc3c(Cl)nn(c3n1)CCCO2 [Example 12, 8-Chloro-2-(2-methoxy-5-methylpyridin-3-yl)-3-methyl-2,4,12,13-tetrahydro-11H-5,7-(azenometheno)dipyrazolo[3,4-b:5′,1′-g][1]oxa[4,6,8]triazacycloundecine]
IC50 [1]: 0.13 nM | IC50 [2]: 0.4 nM | IC50 [3, 6]: 0.63 nM | Kp at 1 h ([4]; brain, oral 5 mg/kg): 1.9 ± 0.3 | Kp uu at 1 h ([4]; brain, oral 5 mg/kg): 0.85 ± 0.15 | concentration at 1 h [4, 7]: 146 ± 56 ng/g | concentration at 1 h [4, 8]: 76 ± 23 ng/mL | CLint scaled at 0.05 μM [5]: 8 mL/min/kg

COc1nc(C)ccc1-n1nc2c(c1C)Nc1ncc3c(Cl)nn(c3n1)CCCO2 [Example 13, 8-Chloro-2-(2-methoxy-6-methylpyridin-3-yl)-3-methyl-2,4,12,13-tetrahydro-11H-5,7-(azenometheno)dipyrazolo[3,4-b:5′,1′-g][1]oxa[4,6,8]triazacycloundecine]
IC50 [1]: 0.22 nM | IC50 [2]: 0.57 nM | IC50 [3, 6]: 0.33 nM | Kp at 1 h ([4]; brain, oral 5 mg/kg): 2.5 ± 0.1 | Kp uu at 1 h ([4]; brain, oral 5 mg/kg): 0.74 ± 0.01 | concentration at 1 h [4, 7]: 496 ± 128 ng/g | concentration at 1 h [4, 8]: 199 ± 52 ng/mL | CLint scaled at 0.05 μM [5]: 31.3 mL/min/kg

Cc1c2c(nn1-c1cccnc1C(C)(F)F)OCCCn1nc(Cl)c3cnc(nc31)N2 [Example 14, 8-Chloro-2-(2-(1,1-difluoroethyl)pyridin-3-yl)-3-methyl-2,4,12,13-tetrahydro-11H-5,7-(azenometheno)dipyrazolo[3,4-b:5′,1′-g][1]oxa[4,6,8]triazacycloundecine]
IC50 [1]: 4.2 nM | IC50 [2]: 14 nM | IC50 [3, 6]: 1.5 nM | Kp at 1 h ([4]; brain, oral 5 mg/kg): 1.2 ± 0.1 | Kp uu at 1 h ([4]; brain, oral 5 mg/kg): 0.49 ± 0.04 | concentration at 1 h [4, 7]: 347 ± 53 ng/g | concentration at 1 h [4, 8]: 283 ± 57 ng/mL | CLint scaled at 0.05 μM [5]: 7.83 mL/min/kg

Cc1nc(C)c(-n2nc3c(c2C)Nc2ncc4c(Cl)nn(c4n2)CCCO3)cc1F [Example 15, 8-Chloro-2-(5-fluoro-2,6-dimethylpyridin-3-yl)-3-methyl-2,4,12,13-tetrahydro-11H-5,7-(azenometheno)dipyrazolo[3,4-b:5′,1′-g][1]oxa[4,6,8]triazacycloundecine]
IC50 [1]: 1.4 nM | IC50 [2]: 4 nM | IC50 [3, 6]: 0.66 nM | Kp at 1 h ([4]; brain, oral 5 mg/kg): 1.8 ± 0.2 | Kp uu at 1 h ([4]; brain, oral 5 mg/kg): 0.81 ± 0.07 | concentration at 1 h [4, 7]: 254 ± 32 ng/g | concentration at 1 h [4, 8]: 143 ± 8 ng/mL | CLint scaled at 0.05 μM [5]: 12 mL/min/kg

COc1nc(C)ncc1-n1nc2c(c1C)Nc1ncc3c(Cl)nn(c3n1)CCCO2 [Example 22, 8-Chloro-2-(4-methoxy-2-methylpyrimidin-5-yl)-3-methyl-2,4,12,13-tetrahydro-11H-5,7-(azenometheno)dipyrazolo[3,4-b:5′,1′-g][1]oxa[4,6,8]triazacycloundecine]
IC50 [1]: 0.59 nM | IC50 [2]: 2.1 nM | IC50 [3]: 0.6 nM | Kp at 1 h ([4]; brain, oral 5 mg/kg): 2.5 ± 0.4 | Kp uu at 1 h ([4]; brain, oral 5 mg/kg): 1.02 ± 0.17 | concentration at 1 h [4, 7]: 216 ± 42 ng/g | concentration at 1 h [4, 8]: 86 ± 8 ng/mL | CLint scaled at 0.05 μM [5]: < 4 mL/min/kg
